# Data reported in ChEMBL document CHEMBL3808371, “Design, synthesis and biological evaluation of diaziridinyl quinone isoxazole hybrids” (Eur J Med Chem, 2016).
# The source made the active and inactive calls. The rule behind the calls is not given here.
# How the values were obtained:
# Assay type in all cases: functional
# [Candida] aaseri [1] = Fungicidal activity against Candida aaseri MTCC 1962 after 24 hrs by serial dilution method; settings: Yamadazyma aaseri, MTCC 1962, 24 h
# Pichia sporocuriosa [2] = experiment: Fungicidal activity against Issatchenkia hanoiensis MTCC 4755 after 24 hrs by serial dilution method; settings: MTCC 4755, 24 h
# Candida albicans [3] = experiment: Fungicidal activity against Candida albicans MTCC 7315 after 24 hrs by serial dilution method; settings: MTCC 7315, 24 h
# Candida albicans [4] = experiment: Antimicrobial activity against Candida albicans MTCC 3017 after 24 hrs by well diffusion method; settings: MTCC 3017, 24 h
# Candida albicans [5] = experiment: Fungicidal activity against Candida albicans MTCC 183 after 24 hrs by serial dilution method; settings: MTCC 183, 24 h
# Candida albicans [6] = experiment: Antimicrobial activity against Candida albicans MTCC 854 after 24 hrs by well diffusion method; settings: MTCC 854, 24 h
# Candida albicans [7] = experiment: Antimicrobial activity against Candida albicans MTCC 183 after 24 hrs by well diffusion method; settings: MTCC 183, 24 h
# Staphylococcus aureus [8] = experiment: Antimicrobial activity against Staphylococcus aureus MLS16 MTCC 2940 after 24 hrs by well diffusion method
# Escherichia coli = experiment: Antimicrobial activity against Escherichia coli MTCC 739 after 24 hrs by well diffusion method
# Raoultella planticola = experiment: Antimicrobial activity against Klebsiella planticola MTCC 530 after 24 hrs by well diffusion method
# Bacillus subtilis = experiment: Antimicrobial activity against Bacillus subtilis MTCC 121 after 24 hrs by well diffusion method
# Candida parapsilosis [9] = experiment: Fungicidal activity against Candida parapsilosis MTCC 1744 after 24 hrs by serial dilution method; settings: Lodderomyces parapsilosis, MTCC 1744, 24 h
# Candida albicans [10] = experiment: Antimicrobial activity against Candida albicans MTCC 4748 after 24 hrs by well diffusion method; settings: MTCC 4748, 24 h
# Candida albicans [11] = experiment: Antimicrobial activity against Candida albicans MTCC 3958 after 24 hrs by well diffusion method; settings: MTCC 3958, 24 h
# Candida parapsilosis [12] = experiment: Antimicrobial activity against Candida parapsilosis MTCC 1744 after 24 hrs by well diffusion method; settings: Lodderomyces parapsilosis, MTCC 1744, 24 h
# [Candida] aaseri [13] = Antimicrobial activity against Candida aaseri MTCC 1962 after 24 hrs by well diffusion method; settings: Yamadazyma aaseri, MTCC 1962, 24 h
# Pichia kudriavzevii [14] = experiment: Fungicidal activity against Candida krusei MTCC 3020 after 24 hrs by serial dilution method; settings: MTCC 3020, 24 h
# Candida albicans [15] = experiment: Fungicidal activity against Candida albicans MTCC 227 after 24 hrs by serial dilution method; settings: MTCC 227, 24 h
# Micrococcus luteus = experiment: Antimicrobial activity against Micrococcus luteus MTCC 2470 after 24 hrs by well diffusion method
# Pseudomonas aeruginosa = experiment: Antimicrobial activity against Pseudomonas aeruginosa MTCC 2453 after 24 hrs by well diffusion method
# Candida albicans [16] = experiment: Fungicidal activity against Candida albicans MTCC 854 after 24 hrs by serial dilution method; settings: MTCC 854, 24 h
# Nakaseomyces glabratus [17] = experiment: Antimicrobial activity against Candida glabrata MTCC 3019 after 24 hrs by well diffusion method; settings: MTCC 3019, 24 h
# Candida albicans [18] = experiment: Antimicrobial activity against Candida albicans MTCC 3018 after 24 hrs by well diffusion method; settings: MTCC 3018, 24 h
# Staphylococcus aureus [19] = experiment: Antimicrobial activity against Staphylococcus aureus MTCC 96 after 24 hrs by well diffusion method
# Pichia sporocuriosa [20] = experiment: Antimicrobial activity against Issatchenkia hanoiensis MTCC 4755 after 24 hrs by well diffusion method; settings: MTCC 4755, 24 h
# Candida albicans [21] = experiment: Fungicidal activity against Candida albicans MTCC 3018 after 24 hrs by serial dilution method; settings: MTCC 3018, 24 h
# Candida albicans [22] = experiment: Fungicidal activity against Candida albicans MTCC 3958 after 24 hrs by serial dilution method; settings: MTCC 3958, 24 h
# Pichia kudriavzevii [23] = experiment: Antimicrobial activity against Candida krusei MTCC 3020 after 24 hrs by well diffusion method; settings: MTCC 3020, 24 h
# Nakaseomyces glabratus [24] = experiment: Fungicidal activity against Candida glabrata MTCC 3019 after 24 hrs by serial dilution method; settings: MTCC 3019, 24 h
# Candida albicans [25] = experiment: Fungicidal activity against Candida albicans MTCC 4748 after 24 hrs by serial dilution method; settings: MTCC 4748, 24 h
# Candida albicans [26] = experiment: Fungicidal activity against Candida albicans MTCC 1637 after 24 hrs by serial dilution method; settings: MTCC 1637, 24 h
# Candida albicans [27] = experiment: Antimicrobial activity against Candida albicans MTCC 227 after 24 hrs by well diffusion method; settings: MTCC 227, 24 h
# Candida albicans [28] = experiment: Antimicrobial activity against Candida albicans MTCC 1637 after 24 hrs by well diffusion method; settings: MTCC 1637, 24 h
# Candida albicans [29] = experiment: Fungicidal activity against Candida albicans MTCC 3017 after 24 hrs by serial dilution method; settings: MTCC 3017, 24 h
# Candida albicans [30] = experiment: Antimicrobial activity against Candida albicans MTCC 7315 after 24 hrs by well diffusion method; settings: MTCC 7315, 24 h
smiles,measurement,setting,value
Clc1ccc(COC(Cn2ccnc2)c2ccc(Cl)cc2Cl)c(Cl)c1 (stereo not given) [MICONAZOLE],MFC,[Candida] aaseri [1],7.8 µg/mL
same,MFC,Pichia sporocuriosa [2],7.8 µg/mL
same,MFC,Candida albicans [3],7.8 µg/mL
same,MIC,Candida albicans [4],7.8 µg/mL
same,MFC,Candida albicans [5],15.6 µg/mL
same,MIC,Candida albicans [6],7.8 µg/mL
same,MIC,Candida albicans [7],7.8 µg/mL
same,MIC,Staphylococcus aureus [8],inactive
same,MIC,Escherichia coli,inactive
same,MIC,Raoultella planticola,inactive
same,MIC,Bacillus subtilis,inactive
same,MFC,Candida parapsilosis [9],7.8 µg/mL
same,MIC,Candida albicans [10],7.8 µg/mL
same,MIC,Candida albicans [11],7.8 µg/mL
same,MIC,Candida parapsilosis [12],7.8 µg/mL
same,MIC,[Candida] aaseri [13],7.8 µg/mL
same,MFC,Pichia kudriavzevii [14],7.8 µg/mL
same,MFC,Candida albicans [15],7.8 µg/mL
same,MIC,Micrococcus luteus,inactive
same,MIC,Pseudomonas aeruginosa,inactive
same,MFC,Candida albicans [16],7.8 µg/mL
same,MIC,Nakaseomyces glabratus [17],7.8 µg/mL
same,MIC,Candida albicans [18],7.8 µg/mL
same,MIC,Staphylococcus aureus [19],inactive
same,MIC,Pichia sporocuriosa [20],7.8 µg/mL
same,MFC,Candida albicans [21],15.6 µg/mL
same,MFC,Candida albicans [22],7.8 µg/mL
same,MIC,Pichia kudriavzevii [23],7.8 µg/mL
same,MFC,Nakaseomyces glabratus [24],15.6 µg/mL
same,MFC,Candida albicans [25],15.6 µg/mL
same,MFC,Candida albicans [26],15.6 µg/mL
same,MIC,Candida albicans [27],7.8 µg/mL
same,MIC,Candida albicans [28],7.8 µg/mL
same,MFC,Candida albicans [29],15.6 µg/mL
same,MIC,Candida albicans [30],7.8 µg/mL
